Experiment: in vitro
Details: dog, MDCK

Papp: 1.9 ×10⁻⁶ cm/s
Compound: CC(C)C(CO)Nc1nc(Nc2ccc(N3CCNCC3)cc2)c2ncn(C(C)C)c2n1 (racemic)
